Reference: PubChem BioAssay AID179 (DTP/NCI, 2004)
Calls of active or inactive are those of the source.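 How the source made its calls: active means compounds giving half or more protection of infected cells from virus-caused growth loss, again on retest; inactive means the rest.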

Test system: CEM cells HIV-1 protection, formazan growth assay
Assay: NCI AIDS Antiviral Assay
Conditions: for IC50: measured here: growth of uninfected CEM cells
Summary of the method: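 Human CEM cells, uninfected and HIV-1-infected, exposed to five drug concentrations; growth measured by soluble formazan assay and scored as percent protection from infection, with protecting compounds retested.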

Structure (SMILES)	EC50 [µM]	IC50 [µM]	outcome
COc1ccc(C23c4ccc(OC)cc4CC2(c2ccc([N+](=O)[O-])cc2)Cc2cc(OC)ccc23)cc1 (stereo not given)	> 200	> 200	
CN(C)C(=S)Nc1nnc(Nc2ccccc2)s1			inactive
N#CNC(=NCc1ccccc1)NCCc1c[nH]c2ccccc12	145	162	
CN(C)Cc1ccccc1CCO	> 200	> 200	
C/C1=C/C(O)C/C(C)=C\C(O)C(=O)/C=C/C2C(CC1)C2(C)C (stereo not given)	> 200	> 200	
CN(C)c1ccc(/C=C(\C#N)c2c(Br)cccc2Br)cc1	> 200	4.17	
COC(=O)/C=C\C1C(C(=O)OC)C2(C(=O)OC)CCC1(C(=O)OC)N2 (stereo not given)			inactive
O=C(C=Nc1ccccc1C(=O)[O-])c1cccs1.O=C(C=Nc1ccccc1C(=O)[O-])c1cccs1.[Ni+2]			inactive
NCCCNCCSP(=O)(O)O	> 1150	257	
CC(=O)O[C@]12CCCCCCC1C1(O)C(O)CCC[C@H]12 (stereo not given in full)	> 200	> 200	
O=C(O)P(=O)(O)O	> 7940	5750	
CCOP(=O)(OCC)C1CC(C)OC1=O (stereo not given)			inactive
O=C(c1ccccc1)[C@H]1Nc2ccc(Cl)cc2C2c3ccccc3CC21 (stereo not given in full)	> 14.5	> 14.5	
Cc1nn(C)c(=O)[nH]c1=O	> 1780	> 1780	
CN1C(=O)C(C)(C)NS1(=O)=O			inactive
C=CC(=O)Nc1ccccc1CC(c1c[nH]c2ccccc12)c1c[nH]c2ccccc12	> 36.3	25.7	
O=C1NC(=O)C(=Cc2cccc(Cl)c2)C(=O)N1	> 145	> 145	
COc1cc2c(c3c1c(=O)c1ccccc1n3C)C=CC1(CCCCC1)O2	> 200	7.76	
Cc1ccc(NC2=N/C(=C/c3ccco3)C(Cl)=N2)cc1	> 200	158	
CCOC(=O)C1(C/C=C\CBr)CCCCCCC1=O (stereo not given)	> 200	16.2	
COc1cccc(/C=N/[N-]C(=O)c2ccncc2)c1[O-].[OH3+].[Pd+2]	> 16.6	> 16.6	
O=S(=O)(O)c1ccc(OCCCCCCCCOc2ccc(S(=O)(=O)O)cc2)cc1	> 14.5	> 14.5	
O=C(NCC1(O)N=C(c2ccc(F)cc2)c2ccsc2-n2cccc21)c1ccc(Cl)cc1Cl (stereo not given)	> 200	18.2	

Structure (SMILES)	EC50 [µM]	IC50 [µM]	outcome
CCn1cnc2[nH]cc(C#N)c2c1=O	> 200	> 200	
CC(C)(C)NC(=O)Nc1ccccn1	> 200	> 200	
COc1cccc(/C=C2\CCCc3ccccc3C2=O)c1	> 200	26.3	
CC12CCC(=O)[C@@]1(C)CCCC2=O (stereo not given in full)			inactive
CC1=N/C(=C\c2cccc(Br)c2)C(=O)O1	> 97.7	66.1	
Nc1nc(N)c2c(-c3ccccc3)ccnc2n1	> 195	162	
S=C(N1CCN(c2ccccc2)CC1)N1CCN(c2ccccc2)CC1	> 200	> 200	
COC(=O)C12Oc3ccc(-c4ccc5c(c4O)C(=O)C4=CCC(C)C(O)C4(C(=O)OC)O5)c(O)c3C(=O)C1=CCC(C)C2O (stereo not given)	> 12	1.78	
[CH3][Hg]/[N]=C(/N)NC#N			inactive
CC(C)=CC[P+](CCC[P+](CC=C(C)C)(c1ccccc1)c1ccccc1)(c1ccccc1)c1ccccc1	> 57.5	> 57.5	
CCOC(=O)C1Cc2c([nH]c(=O)[nH]c2=O)OC1(C)c1ccccc1 (stereo not given)	> 200	> 200	
C(=C/[PH+](c1ccccc1)c1ccccc1)/[PH+](c1ccccc1)c1ccccc1.O=C([O-])C(F)(F)F.[C-]#[O+].[C-]#[O+].[C-]#[O+].[Mn]	> 8.13	0.589	
CCC12CCCN(C1)C(=O)Cc1c([nH]c3ccccc13)C(=O)C2 (stereo not given)	> 8.13	> 8.13	
C1=C[C@@H]2c3ccc4cnccc4c3NC[C@@H]2C1	> 589	36.3	
O=C(O)c1cc(Sc2ccc([N+](=O)[O-])c(C(=O)O)c2)ccc1[N+](=O)[O-]	> 200	> 200	
COc1ccc2nc3c([N+](=O)[O-])ccc4c3c(c2c1)NCCN4C	> 100	0.513	
CN/N=C(/CC(=O)c1sc(NNC(C)=O)nc1C)C(=O)Nc1ccc(OC)cc1OC	> 79.4	> 79.4	
Cc1cc(C)c(O)c(CN(Cc2ccccn2)Cc2ccccn2)c1			inactive
COC(=O)/C(C#N)=C1\N=NNN1c1ccc(OC)cc1			inactive
COc1cc2c(cc1O)C(=O)OC1CC=C3CC[N@@+](C)([O-])[C@H]3C21 (stereo not given in full)	> 195	> 195	
COc1ccc2oc(C(=O)O)c3c2c1CCC3			inactive
O=c1c(Cc2ccccc2)c(O)n(Cc2nc3ccccc3[nH]2)c(=S)n1-c1ccccc1	> 200	> 200	
CN(/N=N/N(C)c1ccccc1)c1ccccc1	> 200	> 200	

Structure (SMILES)	EC50 [µM]	IC50 [µM]	outcome
O=C(O)C1CCCCC1c1c2ccc(=O)cc-2oc2cc(O)ccc12 (stereo not given)	> 200	10.7	
Cc1ccc(Oc2cc(C)ccc2P(=O)(O)O)cc1	> 200	138	
CSc1nc(Nc2ccccc2Cl)c2c(N)nn(C)c2n1	> 200	> 200	
CC1=C(/C=C/C(C)=C/C=C/C(C)=C/C(=O)O)C(C)(C)CCC1			inactive
CC1Sc2ccccc2-c2[nH]c3ccccc3c21 (stereo not given)	> 200	10.2	
O=CC(=O)C(C(=O)O)[N+](=O)[O-] (stereo not given)	> 200	> 200	
COc1ccc(/C=C2\SC(=S)N(/C=C/c3nc4ccccc4[nH]c3=O)C2=O)cc1OC	> 200	32.4	
CC1C2c3ccccc3C(c3ccccc32)C1CN1C(CCO)COC1c1ccccc1 (stereo not given)	> 200	38	
CC(CN1NC12CCCC2)N1NC12CCCC2 (stereo not given)	> 200	> 200	
O=[N+]([O-])c1cccc(-c2csc(N=Nc3c(O)[nH]c4ccccc34)n2)c1	> 200	> 200	
COc1cc2c(c3c1C=CCO3)C(=O)c1ccccc1C2=O			inactive
C=C1C(=O)OC2CC(C)C3C(OC(C)=O)CC(OC(C)=O)C3(C)CC12 (stereo not given)	> 97.7	6.76	
COC(=O)[C@@H]1c2cc3c(c(O)c2[C@@H](OC2OC(C)C(OC)C(C)(OC)C2OC)C[C@]1(C)O)C(=O)c1c(O)cc2c(c1C3=O)O[C@H]1O[C@]2(C)[C@H](O)[C@@H](N(C)C)[C@@H]1O (stereo not given in full)			inactive
O=C1NC2(O)C(=O)c3ccccc3C2(O)N1 (stereo not given)	> 1120	> 1120	
C=CCOc1ccc(C2c3c([nH][nH]c3=O)CC(C)(O)C2C(=O)OC)cc1OC (stereo not given)	> 200	> 200	
Cc1c(COC(=O)NC(C)C)c(COC(=O)NC(C)C)c2n1CS(=O)C2 (stereo not given)	> 200	166	
O=C(O)CNS(=O)(=O)c1ccc(NC(=O)c2ccc([N+](=O)[O-])cc2)cc1			inactive
CCCCCCC=C(c1cc(Cl)c(OC)c(C(=O)OC)c1)c1cc(Cl)c(OC)c(C(=O)OC)c1	> 5.37	> 5.37	
CN(C)CCC(/C=C/c1ccccc1)=N\Nc1ccc(Cl)cc1Cl			inactive
CC(C(=O)OCc1ccccc1)(c1ccco1)N1C(=O)OC(c2ccccc2)C1c1ccccc1 (stereo not given)	> 200	13.5	
Cc1c(NC(=S)NN)c(=O)n(-c2ccccc2)n1C	> 200	> 200	
COCOc1ccc(C(=O)C(C)c2ccc(OCOC)cc2OCOC)c(O)c1 (stereo not given)	> 200	25.7	
CCOC(=O)c1sc2c(c1O)c(=O)n(-c1ccccc1)c(=S)n2-c1ccccc1	> 17	> 17	

Structure (SMILES)	EC50 [µM]	IC50 [µM]	outcome
COc1cc(COC(=O)N(CC(=O)O)c2ccccc2)c([N+](=O)[O-])cc1OC	> 646	295	
CCN(C)c1nc(N(C)CC)c2nc(N(C)CC)nc(N(C)CC)c2n1	> 501	120	
FC(F)(Sc1ccccn1)c1nc2ccccc2o1	14.8	89.1	
COc1ccccc1Nc1nc2c([nH]1)c(=O)n(C)c(=O)n2C	> 200	> 200	
CC(=O)OC1CC2C3(C)CC4O[C@@](C)(O)CC(C)C4[C@@]3(C)CC[C@]23C[C@@]32CC[C@H](OC3OCC(O)C(O)C3O)C(C)(C)C12 (stereo not given in full)	> 53.7	22.4	
CN(C)Cc1cc(N=Nc2ccccc2Cl)ccc1O	> 20	10.2	
COc1cc(/C=C(\NC(=O)c2ccccc2)c2nc3ncncc3[nH]2)cc(OC)c1OC			inactive
CC(=O)OCc1cc(=O)n2c([nH]c3ccccc32)c1C#N	> 20	> 20	
CC1(C)c2ccccc2C(O)C12CCC(=O)CC2 (stereo not given)	> 200	> 200	
CCN(CC)CCNc1ccc2ncn3c4c(OC)cccc4c(=O)c1c23	> 50.1	0.871	
O=C1OCCN1N1CCOC1=O	> 200	> 200	
O=C1NC(Cc2ccc([N+](=O)[O-])cc2)C(=O)N2CCCC12 (stereo not given)	> 200	> 200	
CC(=O)O[C@H]1CCC2[C@@H]3CCC4Nc5c(cnn5-c5ccccc5)C[C@]4(C)C3CC[C@@]21C (stereo not given in full)			inactive
O=S1(=O)C[C@H](NCc2ccccc2)[C@H](NCc2ccccc2)C1	> 200	107	
CC(=O)NC(CCCCN(Cc1ccccc1)C(=O)N(CCCl)N=O)C(=O)NCc1ccccc1 (stereo not given)	> 72.4	> 72.4	
COC(=O)CC1C2CC3C(C2=O)C13 (stereo not given)	> 200	> 200	
O=C(Nc1nc2ccccc2s1)c1cc([N+](=O)[O-])ccc1Cl	> 200	3.8	
Cc1c(Cl)c(=O)oc2cc(OCC(O)COC(C)C)ccc12 (stereo not given)			inactive
CN(C)CCS(=O)(=O)O	> 200	> 200	
O=c1ccc2ccc(OP(=O)(O)O)cc2o1	> 200	> 200	
